Results on 2 molecules are retold here after US20260193254A1, “2-OXOQUINAZOLINE CRYSTALLINE FORMS” (IDEAYA Biosciences, Inc., priority 2022, published 2026).

pIC50: −log10 of the molar value. In brackets after ≈: the same amount, converted by molar mass.

Series [1] can be described thus: Behavior under compression. The class given is physicochemical. The following applies: 2 Mpa/2 min, hydraulic press. On the procedure:
XRPD characterization was performed to investigate polymorphic behavior under compression.

Series [2] can be described thus: Bulk stability of crystalline forms. In kind it is physicochemical. Particulars: for Purity, Bulk (HPLC): Solid state. An excerpt:
(§1) Solids obtained after bulk stability study were characterized by XRPD and HPLC.

Series [3] can be described thus: Equilibrium solubility in FeSSIF and FaSSIF. The class given is physicochemical. Particulars: 24 hours; for Solubility: target concentration 1 mg/mL, HPLC method 1 or 2 (footnote). On the procedure: Solid part and liquid part were separated by filtration. Solubility was measured by HPLC. Solid part (wet cake) was investigated by XRPD.
A short description of series [4]: Intrinsic dissolution rate (IDR) evaluation in FaSSIF. In kind it is physicochemical. Particulars: FaSSIF at 37° C. On the procedure:
Only one surface of the pellet was exposed (surface area=0.50 cm^2) to 900 mL FaSSIF, the dissolution medium. Temperature of chamber medium was set as 37±0.5° C. Shaft rotation as 100 rpm and sampling time points as 2 min, 5 min, 10 min, 15 min, 20 min, 25 min, 30 min, 35 min, 40 min, 50 min, 60 min, and 120 min. 2 mL sample solution was withdrawn at each time point and centrifuged at 14,000 rpm for 5 min to isolate supernatant. Then concentration of the supernatant was analyzed by HPLC. After 120 min, XRPD of disc surface was measured.

Series [5] is described as follows: Bulk stability of crystalline forms. The class given is physicochemical. Details: key: Color A: All No change of color. The following applies: Solid state.
Description: as §1

Series [6] in a line: Bulk stability of crystalline forms. In kind it is physicochemical. Further details: key: Color A: All No change of color; Color B: Slightly discoloration. The following applies: Solid state, 60° C., tight container, 2 weeks.
Description: as §1

The target of a further series is T1, MAT2A enzyme (Homo sapiens, UniProt P31153).
T1 construct: Human MAT2A: Cepter, amino acids 1-395; purchased Cepter clone ID 329, lot 00023-123; clone ID 334, lot 00023-148
T1 sequence (P31153 whole entry, the tested form may be a part): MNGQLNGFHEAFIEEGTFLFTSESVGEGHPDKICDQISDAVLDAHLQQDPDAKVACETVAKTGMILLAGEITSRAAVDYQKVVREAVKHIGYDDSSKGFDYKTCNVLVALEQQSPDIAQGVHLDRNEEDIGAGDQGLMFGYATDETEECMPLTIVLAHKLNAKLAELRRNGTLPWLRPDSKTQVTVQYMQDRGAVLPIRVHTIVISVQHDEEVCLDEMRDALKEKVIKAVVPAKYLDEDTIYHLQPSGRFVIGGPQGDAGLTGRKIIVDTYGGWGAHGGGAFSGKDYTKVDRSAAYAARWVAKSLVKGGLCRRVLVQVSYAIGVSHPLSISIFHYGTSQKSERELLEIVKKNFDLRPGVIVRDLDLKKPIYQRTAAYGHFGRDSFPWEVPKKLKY
Briefly: Phosphate Sensor Fluorescence Assay. In kind it is biochemical. The following applies: inhibition of MAT2A enzyme. How it is done: The ability of the compound of Formula (I) described in Example 1 to inhibit MAT2A enzyme was determined using a Phosphate Sensor Fluorescence Assay described below.
MAT2A enzyme is incubated with a test compound in DMSO or DMSO and its substrates (L-methionine and ATP) in a microtiter plate. The enzymatic reaction is stopped by the addition of Working Phosphate Sensor Mixture. The plate is analyzed for fluorescence at 450 nm. The high control (DMSO with enzyme and its substrates) gives high fluorescence which represents no inhibition of enzymatic activity while the low control (DMSO with MAT2A substrates and no enzyme) gives low fluorescence which represents full inhibition of enzymatic activity. […]
For the assay, a mixture of 1 mM L-methionine/1 mM ATP (2× final pre-stopped concentration) in assay buffer; MAT2A (2× final pre-stopped concentration) in Assay Buffer and Working Phosphate Sensor Mixture (1.5 μM Phosphate Sensor/30 mM EDTA in Assay Buffer, which is 3× final concentrations) were prepared. […] The plate was read for fluorescence at 450 nm after exciting at 430 nm.
Percent inhibition was calculated in Chemical and Biological Information System (CBIS), (ChemInnovation Software Inc.). […]

[7] abbreviates: 25° C./92% RH, open container, 1 week.
[8] abbreviates: 25° C./92% RH, open container, 2 weeks.
[9] abbreviates: 25° C./92% RH, open container, 4 weeks.
Setting [10] is: 40° C./75% RH, open container, 1 week.
Setting [11] is: 40° C./75% RH, open container, 2 weeks.
Where [12] appears, read: 40° C./75% RH, open container, 4 weeks.
Setting [13] is: 60° C., tight container, 1 week.
The mark [14] stands for this setting: 60° C., tight container, 4 weeks.

On to `Nc1nc(=O)n(-c2ccccc2Cl)c2nc(C(F)(F)F)ccc12` [substantially amorphous form, 4-Amino-1-(2-chlorophenyl)-7-(trifluoromethyl)pyrido[2,3-d]pyrimidin-2(1H)-one], for which, in series [1], the XRPD after compression entry is “No form change”. Besides, the “Purity, Bulk (HPLC)” value in series [2] (setting [7]) is listed as 98.5%; in series [2] (setting [8]) it was 98.1%; in series [2] (setting [9]), 97.2%; in series [2] (setting [10]), 97.5%; in series [2] (setting [11]), 96.1%; in series [2] (setting [12]) it was 93.5%. For the same molecule, the “Purity, Bulk (HPLC)” value in series [2] (setting [13]) came out at 98.4%; in series [2] (60° C., tight container, 2 weeks), 97.8%; in series [2] (setting [14]) it was 97.8%. Besides, in series [2] (after exposure to 40° C./75 RH in an open container and 60° C. in a tight container), the “degradation (bulk stability)” value is recorded as “slight degradation”. Besides, in series [2] (before stress, HPLC), the Initial purity is listed as 98.7%. Also, the “chemical stability and physical stability (bulk stability)” value in series [2] (stressed under 25° C./92 RH, 40% C/75% RH and 60° C., XRPD and HPLC) is recorded as “physically stable”. Further, the “final pH” value is recorded as 6.5 in series [3] (FaSSIF, pH 6.5, 37° C.) and 5.0 in series [3] (FeSSIF, pH 5.0, 37° C.). In addition, the Solubility was found to be 120 µg/mL (≈ 352 µM) in series [3] (FaSSIF, pH 6.5, 37° C.) and 230 µg/mL (≈ 675 µM) in series [3] (FeSSIF, pH 5.0, 37° C.). Also, the “XRPD after IDR” value in series [4] (disc surface after 120 min) is “No form change”. For the same molecule, the “Concentration detected during IDR test (Comments)” value in series [4] (for Form V and Form A remains same during the whole process, LOQ for Form T and amorphous form) is recorded as “<LOQ (0.0008 mg/mL”. In addition, the Color entry in series [5] (setting [7]), in series [5] (setting [8]), in series [5] (setting [9]), in series [5] (setting [10]), in series [5] (setting [11]) and in series [5] (setting [12]) was “A” in each case. The Color result in series [5] (setting [13]) is on record as “A”; in series [5] (setting [14]), “A”; in series [6], “B”.

`Nc1nc(=O)n(-c2ccccc2Cl)c2nc(C(F)(F)F)ccc12` [Formula (I), 4-Amino-1-(2-chlorophenyl)-7-(trifluoromethyl)pyrido[2,3-d]pyrimidin-2(1H)-one] showed a negative-log IC50 (pIC50) against MAT2A enzyme of over 6.70.
